Source: patent US8772504B2, “Substituted benzoxazole, benzimidazole, oxazolopyridine and imidazopyridine derivatives as gamma secretase modulators” (Janssen Pharmaceuticals, Inc., priority 2009, dated 2014)

What was measured:
Type in all cases: cell-based
Aβ42 [1] = experiment: Screening for γ-secretase-modulating activity, Method 2: Aβ42 Alphalisa on SKNBE2 cell supernatant; details: Method 2, Table 3c, SKNBE2 cells carrying APP 695 wild type, overnight incubation
Experimental: (§1) Screening was carried out using SKNBE2 cells carrying the APP 695—wild type, grown in Dulbecco's Modified Eagle's Medium/Nutrient mixture F-12 (DMEM/NUT-mix F-12) (HAM) provided by Invitrogen (cat no. 10371-029) containing 5% Serum/Fe supplemented with 1% non-essential amino acids, 1-glutamine 2 mM, Hepes 15 mM, penicillin 50 U/ml (units/ml) en streptomycin 50 μg/ml. Cells were grown to near confluency.
(§2) The screening was performed using a modification of the assay as described in Citron et al (1997) Nature Medicine 3: 67. Briefly, cells were plated in a 384-well plate at 10^4 cells/well in Ultraculture (Lonza, BE12-725F) supplemented with 1% glutamine (Invitrogen, 25030-024), 1% non-essential amino acid (NEAA), penicillin 50 U/ml en streptomycin 50 μg/ml in the presence of test compound at different test concentrations. The cell/compound mixture was incubated overnight at 37° C., 5% CO2. The next day the media were assayed by two sandwich immuno-assays, for Aβ42 and Aβtotal.
(§3) Aβtotal and Aβ42 concentrations were quantified in the cell supernatant using the Aphalisa technology (Perkin Elmer). Alphalisa is a sandwich assay using biotinylated antibody attached to streptavidin coated donorbeads and antibody conjugated to acceptor beads. In the presence of antigen, the beads come into close proximity. The excitation of the donor beads provokes the release of singlet oxygen molecules that trigger a cascade of energy transfer in the acceptor beads, resulting in light emission. To quantify the amount of Aβ42 in the cell supernatant, monoclonal antibody specific to the C-terminus of Aβ42 (JRF/cAβ42/26) was coupled to the receptor beads and biotinylated antibody specific to the N-terminus of Aβ (JRF/AβN/25) was used to react with the donor beads. To quantify the amount of Aβtotal in the cell supernatant, monoclonal antibody specific to the N-terminus of Aβ (JRF/AβN/25) was coupled to the receptor beads and biotinylated antibody specific to the mid region of Aβ (biotinylated 4G8) was used to react with the donor beads.
(§4) To obtain the values reported in Table 3c, the data were calculated as percentage of the maximum amount of amyloid Beta 42 measured in the absence of the test compound. The sigmoidal dose response curves were analyzed using non-linear regression analysis with percentage of the control plotted against the log concentration of the compound. A 4-parameter equation was used to determine the IC50.

Aβtotal [2] = experiment: Screening for γ-secretase-modulating activity, Method 2: Aβtotal Alphalisa on SKNBE2 cell supernatant; details: Method 2, Table 3c, SKNBE2 cells carrying APP 695 wild type, overnight incubation
Experimental: as §1, §2, §3, §4

Aβ42 [3] = experiment: Screening for γ-secretase-modulating activity, Method 1: Aβ42 sandwich ELISA on SKNBE2 cell media; details: Table 3b; SKNBE2 cells carrying APP 695 wild type; non-linear regression of % of control; averaged IC50 values
Experimental: as §1, with “Gibco” for “Invitrogen”, “31330-38)” for “10371-029)”, “acids.” for “acids, 1-glutamine 2 mM, Hepes 15 mM, penicillin 50 U/ml (units/ml) en streptomycin 50 μg/ml.”
(§5) The screening was performed using the assay as described in Citron et al (1997) Nature Medicine 3: 67. Briefly, cells were plated in a 96-well plate at about 10^5 cells/ml one day prior to addition of compounds. Compounds were added to the cells in Ultraculture (Lonza, BE12-725F) supplemented with 1% glutamine (Invitrogen, 25030-024) for 18 hours. The media were assayed by two sandwich ELISAs, for Aβ42 and Aβtotal. Toxicity of the compounds was assayed by WST-1 cell proliferation reagent (Roche, 1 644 807) according to the manufacturer's protocol.
To quantify the amount of Aβ42 in the cell supernatant, commercially available Enzyme-Linked-Immunosorbent-Assay (ELISA) kits were used (Innotest® β-Amyloid(1-42), Innogenetics N.V., Ghent, Belgium). The Aβ42 ELISA was performed essentially according to the manufacturer's protocol. Briefly, the standards (dilutions of synthetic Aβ1-42) were prepared in polypropylene Eppendorf with final concentrations of 8000 down to 3.9 pg/ml (1/2 dilution step). Samples, standards and blanks (100 μl) were added to the anti-Aβ42-coated plate supplied with the kit (the capture antibody selectively recognizes the C-terminal end of the antigen). The plate was allowed to incubate 3 h at 25° C. in order to allow formation of the antibody-amyloid complex. Following this incubation and subsequent wash steps a selective anti-Aβ-antibody conjugate (biotinylated 3D6) was added and incubated for a minimum of 1 hour in order to allow formation of the antibody-Amyloid-antibody-complex. After incubation and appropriate wash steps, a Streptavidine-Peroxidase-Conjugate was added, followed 30 minutes later by an addition of 3,3′,5,5′-tetramethylbenzidine (TMB)/peroxide mixture, resulting in the conversion of the substrate into a coloured product. This reaction was stopped by the addition of sulfuric acid (0.9 N) and the colour intensity was measured by means of photometry with an ELISA-reader with a 450 nm filter.
(§6) To obtain the values reported in Table 3a, the sigmoidal dose response curves were analysed by computerised curve-fitting, with percent of inhibition plotted against compound concentration. A 4-parameter equation (model 205) in XLfit was used to determine the IC50. The top and the bottom of the curve were fixed to 100 and 0, respectively, and the hill slope was fixed to 1. The IC50 represents the concentration of a compound that is required for inhibiting a biological effect by 50% (Here, it is the concentration where Aβ peptide level is reduced by 50%).
as §4, with “3b,” for “3c,”, “IC50. The values reported in Table 3b are averaged IC50 values.” for “IC50.”

Aβtotal [4] = experiment: Screening for γ-secretase-modulating activity, Method 1: Aβtotal sandwich ELISA on SKNBE2 cell media; details: Table 3b; SKNBE2 cells carrying APP 695 wild type; non-linear regression of % of control; averaged IC50 values
Experimental: as §1, with “Gibco” for “Invitrogen”, “31330-38)” for “10371-029)”, “acids.” for “acids, 1-glutamine 2 mM, Hepes 15 mM, penicillin 50 U/ml (units/ml) en streptomycin 50 μg/ml.”
as §5
To quantify the amount of Aβtotal in the cell supernatant, samples and standards were added to a 6E10-coated plate. The plate was allowed to incubate overnight at 4° C. in order to allow formation of the antibody-amyloid complex. Following this incubation and subsequent wash steps a selective anti-Aβ-antibody conjugate (biotinylated 4G8) was added and incubated for a minimum of 1 hour in order to allow formation of the antibody-Amyloid-antibody-complex. After incubation and appropriate wash steps, a Streptavidine-Peroxidase-Conjugate was added, followed 30 minutes later by an addition of Quanta Blu fluorogenic peroxidase substrate according to the manufacturer's instructions (Pierce Corp., Rockford, Ill.).
as §6
as §4, with “3b,” for “3c,”, “IC50. The values reported in Table 3b are averaged IC50 values.” for “IC50.”

IC50 (Aβ42 [1])	IC50 (Aβtotal [2])	other results	SMILES
26 nM	> 10000 nM		Cc1cn(-c2ccc(Nc3cc(F)cc4c3nc(-c3ccc(F)cc3)n4C(C)C)cc2F)cn1 [Compound 125]
19 nM	> 10000 nM		COc1cc(Nc2cccc3c2nc(-c2cccc(Cl)c2)n3C(C)C)ccc1-n1cnc(C)n1 [Compound 126]
		IC50 (Aβ42 [3]): 56 nM; IC50 (Aβtotal [4]): > 3000 nM	CCn1c(-c2cc(F)ccc2F)nc2c(Nc3ccc(-n4cnc(C)n4)c(OC)c3)cc(F)cc21 [Compound 127]
		IC50 (Aβ42 [3]): 11 nM; IC50 (Aβtotal [4]): > 3000 nM	COc1cc(Nc2cc(F)cc3c2nc(-c2ccccc2Cl)n3C)ccc1-n1cnc(C)n1 [Compound 128]
5 nM	4570 nM		COc1nc(Nc2cccc3c2nc(-c2cc(F)cc(C(F)(F)F)c2)n3C)ccc1-n1cnc(C)c1 [Compound 132]
		IC50 (Aβ42 [1]; Homo sapiens): 9 nM; IC50 (Aβtotal [2]; Homo sapiens): > 10000 nM	COc1nc(Nc2cccc3c2nc(-c2ccc(F)c(Br)c2)n3C)ccc1-n1cnc(C)c1 [Compound 133]
5 nM	6920 nM		COc1cc(-c2nc3c(Nc4ccc(-n5cnc(C)c5)c(OC)n4)cccc3n2C)ccc1Cl [Compound 134]
10 nM	> 10000 nM		COc1cc(-c2nc3c(Nc4ccc(-n5cnc(C)n5)c(OC)c4)nc(C)cc3n2C)ccc1Cl [Compound 135]
126 nM	> 10000 nM		COc1ccccc1-c1nc2c(Nc3ccc(-n4cnc(C)c4)c(F)c3)nc(C)cc2n1C [Compound 138]
35 nM	> 10000 nM		Cc1cn(-c2ccc(Nc3nc(C)cc4c3nc(-c3ccccc3Cl)n4C)cc2F)cn1 [Compound 139]
4 nM	> 10000 nM		COc1cc(-c2nc3c(Nc4ccc(-n5cnc(C)c5)c(OC)n4)cc(F)cc3n2C)ccc1Cl [Compound 140]
550 nM	> 10000 nM		Cc1cn(-c2ccc(Nc3nc(C)cc4c3nc(-c3cccnc3)n4C)cc2F)cn1 [Compound 143]
145 nM	> 10000 nM		COc1ccc(-c2nc3c(Nc4ccc(-n5cnc(C)c5)c(F)c4)nc(C)cc3n2C)c(F)c1 [Compound 144]
		IC50 (Aβ42 [3]): 209 nM; IC50 (Aβtotal [4]): > 3000 nM	COc1cc(Nc2nccc3c2nc(-c2ccccc2Cl)n3C)ccc1-n1cnc(C)n1 [Compound 145]
347 nM	> 10000 nM		COc1nc(Nc2cccc3c2nc(-c2ccc(=O)n(C)c2)n3C)ccc1-n1cnc(C)c1 [Compound 146]
44 nM	7940 nM		COc1cc(Nc2nc(C)cc3c2nc(-c2ccccc2Cl)n3C)ccc1-n1cnc(C)n1 [Compound 147]
		IC50 (Aβ42 [3]): 58 nM; IC50 (Aβtotal [4]): > 3000 nM	COc1cc(Nc2nc(Cl)cc3c2nc(-c2ccc(F)cc2)n3C)ccc1-n1cnc(C)n1 [Compound 156]
